Test results from ChEMBL document CHEMBL1144085, “DNA polymerase beta inhibitors from Sandoricum koetjape” (J Nat Prod, 1999).
Active and inactive are the calls of the source. The calls are words filed in the database; no cut-off is given here.

Tests used:
[1] = target: DNA polymerase beta (Rattus norvegicus, UniProt P06766); test: (§1) Inhibition of rat DNA polymerase beta
[2] = target: DNA polymerase beta (Rattus norvegicus) (UniProt P06766); test: Activity of rat DNA polymerase beta using variable levels of [3H]TTP substrate by Lineweaver-Burke plot
[3] = target: DNA polymerase beta (Rattus norvegicus) (UniProt P06766); test: Activity of rat DNA polymerase beta using variable levels of DNA template primer by Lineweaver-Burke plot
[4] = target: DNA polymerase beta (Rattus norvegicus) (UniProt P06766); test: as §1

Compound | IC50 [1] [µM] | Kii [2] [µM] | Kis [2] [µM] | Kii [3] [µM] | Kis [3] [µM] | Activity [4]
C=C(C)[C@@H]1CC[C@]2(C)[C@H](CC=C3[C@@H]4C[C@@](C)(C(=O)O)CC[C@]4(C)CC[C@]32C)[C@@]1(C)CCC(=O)O [KOETJAPIC ACID] | 20 | 11 | 24 | 18 | 5.6 | 
CC1(C)[C@H](O)CC[C@]2(C)[C@H]3CC=C4[C@@H]5C[C@](C)(C(=O)O)CC[C@]5(C)CC[C@@]4(C)[C@]3(C)CC[C@@H]12 [KATONIC ACID] | 36 | 24 | 60 | 11 | 4.2 | 
COC(=O)[C@]1(C)CC[C@]2(C)CC[C@]3(C)C(=CC[C@@H]4[C@@]5(C)CC[C@@H](O)C(C)(C)[C@@H]5CC[C@]43C)[C@@H]2C1 |  |  |  |  |  | inactive
CC1(C)/C(=N\O)CC[C@]2(C)[C@H]3CC=C4[C@@H]5C[C@](C)(C(=O)O)CC[C@]5(C)CC[C@@]4(C)[C@]3(C)CC[C@@H]12 | 16 | 10 | 16 |  |  | 
CC1(C)/C(=N\OCc2ccccc2)CC[C@]2(C)[C@H]3CC=C4[C@@H]5C[C@](C)(C(=O)O)CC[C@]5(C)CC[C@@]4(C)[C@]3(C)CC[C@@H]12 | 35 | 22 | 69 | 24 | 37 | 
CO/N=C1/CC[C@]2(C)[C@H]3CC=C4[C@@H]5C[C@](C)(C(=O)O)CC[C@]5(C)CC[C@@]4(C)[C@]3(C)CC[C@H]2C1(C)C | 36 | 35 | 73 | 35 | 9.1 | 

Continued, values first:

IC50 [1] [µM] | Kii [2] [µM] | Kis [2] [µM] | Kii [3] [µM] | Kis [3] [µM] | Activity [4] | Compound
 |  |  |  |  | inactive | CC(C)(C)NC(=O)[C@]1(C)CC[C@]2(C)CC[C@]3(C)C(=CC[C@@H]4[C@@]5(C)CCC(=O)C(C)(C)[C@@H]5CC[C@]43C)[C@@H]2C1
 |  |  |  |  | inactive | COC(=O)[C@]1(C)CC[C@]2(C)CC[C@]3(C)C(=CC[C@@H]4[C@@]5(C)CCC(=O)C(C)(C)[C@@H]5CC[C@]43C)[C@@H]2C1
 |  |  |  |  | inactive | CC1(C)C(=O)CC[C@]2(C)[C@H]3CC=C4[C@@H]5C[C@](C)(C(N)=O)CC[C@]5(C)CC[C@@]4(C)[C@]3(C)CC[C@@H]12
 |  |  |  |  | inactive | CCN(CC)C(=O)[C@]1(C)CC[C@]2(C)CC[C@]3(C)C(=CC[C@@H]4[C@@]5(C)CCC(=O)C(C)(C)[C@@H]5CC[C@]43C)[C@@H]2C1
 |  |  |  |  | inactive | CCCCNC(=O)[C@]1(C)CC[C@]2(C)CC[C@]3(C)C(=CC[C@@H]4[C@@]5(C)CCC(=O)C(C)(C)[C@@H]5CC[C@]43C)[C@@H]2C1
22 | 9.1 | 60 | 50 | 5.5 |  | CC1(C)C(=O)CC[C@]2(C)[C@H]3CC=C4[C@@H]5C[C@](C)(C(=O)O)CC[C@]5(C)CC[C@@]4(C)[C@]3(C)CC[C@@H]12
 |  |  |  |  | inactive | CCOC(=O)[C@]1(C)CC[C@]2(C)CC[C@]3(C)C(=CC[C@@H]4[C@@]5(C)CCC(=O)C(C)(C)[C@@H]5CC[C@]43C)[C@@H]2C1
